Activity calls are given as the source filed them.
Columns and labels:
[1] = target: T1, Long-chain-fatty-acid--AMP ligase FadD28 (Mycobacterium tuberculosis, UniProt P9WQ59); assay: Fluorescence polarization aasay to screen for inhibitors that compete for the binding of FadD28 to a bisubstrate Measured in Biochemical System Using Plate Reader - 2147-01_Inhibitor_Dose_CherryPick_Activity.; assay type: functional, Mycobacterium tuberculosis H37Rv
T1 sequence (P9WQ59 whole entry): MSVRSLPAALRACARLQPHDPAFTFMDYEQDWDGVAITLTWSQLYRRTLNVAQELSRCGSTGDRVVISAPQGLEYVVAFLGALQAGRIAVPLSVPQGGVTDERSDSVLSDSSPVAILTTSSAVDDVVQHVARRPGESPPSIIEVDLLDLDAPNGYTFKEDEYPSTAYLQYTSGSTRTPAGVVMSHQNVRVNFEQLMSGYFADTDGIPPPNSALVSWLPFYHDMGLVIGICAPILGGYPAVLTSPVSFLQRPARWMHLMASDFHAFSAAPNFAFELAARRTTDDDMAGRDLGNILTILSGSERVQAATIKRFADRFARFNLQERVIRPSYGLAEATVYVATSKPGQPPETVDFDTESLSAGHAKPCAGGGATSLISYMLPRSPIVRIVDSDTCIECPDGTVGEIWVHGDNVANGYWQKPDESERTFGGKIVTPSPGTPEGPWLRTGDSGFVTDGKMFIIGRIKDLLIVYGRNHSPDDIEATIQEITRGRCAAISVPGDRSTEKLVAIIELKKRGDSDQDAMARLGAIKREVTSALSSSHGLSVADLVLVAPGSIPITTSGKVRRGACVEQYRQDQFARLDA

[2] = target: Glucose-6-phosphate 1-dehydrogenase (Homo sapiens, UniProt P11413); assay: inhibition of Homo sapiens G6PD, dose series – biochemical, fluorescence, selectivity assay for P. falciparum G6PD inhibitor project, dose response (AID 504792); assay type: functional
Glucose-6-phosphate 1-dehydrogenase, sequence (P11413 whole entry): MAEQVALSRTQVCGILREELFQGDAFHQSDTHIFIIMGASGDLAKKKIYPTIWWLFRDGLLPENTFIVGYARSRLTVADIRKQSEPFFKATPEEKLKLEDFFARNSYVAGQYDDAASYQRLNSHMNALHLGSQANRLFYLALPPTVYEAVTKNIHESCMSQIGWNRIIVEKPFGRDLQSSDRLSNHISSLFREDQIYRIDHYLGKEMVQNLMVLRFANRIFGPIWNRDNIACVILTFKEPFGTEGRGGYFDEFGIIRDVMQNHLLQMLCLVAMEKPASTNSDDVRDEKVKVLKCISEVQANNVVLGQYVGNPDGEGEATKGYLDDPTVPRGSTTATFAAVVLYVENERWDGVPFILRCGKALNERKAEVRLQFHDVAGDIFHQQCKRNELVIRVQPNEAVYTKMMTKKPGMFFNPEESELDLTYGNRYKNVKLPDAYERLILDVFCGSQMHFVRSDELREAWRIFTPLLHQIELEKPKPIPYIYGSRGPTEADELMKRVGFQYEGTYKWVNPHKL

[3] = target: T2, Polyadenylate-binding protein 1 (Homo sapiens, UniProt P11940); assay: MLLE binding blockers, Cy5 peptide tracer – biochemical, fluorescence polarization, Cy5-PAM2 peptide, secondary, miRNA deadenylation inhibitor project, dose response (AID 602260); assay type: functional; conditions: read-out: IC50_Mean
T2 sequence (P11940 whole entry, the tested form may be a part): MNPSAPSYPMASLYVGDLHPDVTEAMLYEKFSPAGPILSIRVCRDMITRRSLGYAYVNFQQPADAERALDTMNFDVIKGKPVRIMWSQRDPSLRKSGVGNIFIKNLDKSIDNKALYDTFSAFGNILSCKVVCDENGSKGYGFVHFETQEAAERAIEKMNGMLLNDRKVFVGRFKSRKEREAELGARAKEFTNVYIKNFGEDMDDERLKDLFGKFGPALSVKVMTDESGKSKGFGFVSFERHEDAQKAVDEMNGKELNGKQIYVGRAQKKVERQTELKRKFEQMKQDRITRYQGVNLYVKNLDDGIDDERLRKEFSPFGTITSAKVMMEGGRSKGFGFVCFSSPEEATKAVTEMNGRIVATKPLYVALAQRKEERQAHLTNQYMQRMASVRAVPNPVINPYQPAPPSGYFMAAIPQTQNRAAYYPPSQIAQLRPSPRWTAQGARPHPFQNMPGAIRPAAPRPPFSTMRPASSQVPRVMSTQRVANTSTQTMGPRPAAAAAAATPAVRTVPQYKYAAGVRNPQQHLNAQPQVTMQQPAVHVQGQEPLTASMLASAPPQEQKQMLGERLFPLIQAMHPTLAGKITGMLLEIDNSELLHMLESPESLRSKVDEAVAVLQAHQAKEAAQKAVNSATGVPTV

[4] = target: T2, Polyadenylate-binding protein 1; assay: MLLE domain peptide-binding blockers, IC50 – biochemical, fluorescence polarization, FITC-PAM2 peptide, dose response (AID 602259); assay type: functional; conditions: read-out: IC50_Mean
[5] = target: T3, Calpain-2 catalytic subunit (Sus scrofa, UniProt P43367); assay: m-calpain protease blockers, concentration series – biochemical, fluorogenic peptide substrate, dose response (AID 1420); assay type: functional
T3 sequence (P43367 whole entry): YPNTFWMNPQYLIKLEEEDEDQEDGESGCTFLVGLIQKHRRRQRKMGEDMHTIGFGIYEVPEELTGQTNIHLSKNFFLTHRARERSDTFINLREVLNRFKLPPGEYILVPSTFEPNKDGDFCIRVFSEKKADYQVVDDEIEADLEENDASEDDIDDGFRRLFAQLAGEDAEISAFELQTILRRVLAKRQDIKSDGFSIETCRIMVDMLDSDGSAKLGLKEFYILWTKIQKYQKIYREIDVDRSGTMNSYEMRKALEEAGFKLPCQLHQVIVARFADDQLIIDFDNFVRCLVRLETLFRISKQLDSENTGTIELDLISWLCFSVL

Cytochrome P450 2D6 = Cytochrome P450 2D6 (Homo sapiens, UniProt P10635);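 further: CYP2D6 member of a cytochrome P450 panel assay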
Cytochrome P450 2D6, sequence (P10635 whole entry): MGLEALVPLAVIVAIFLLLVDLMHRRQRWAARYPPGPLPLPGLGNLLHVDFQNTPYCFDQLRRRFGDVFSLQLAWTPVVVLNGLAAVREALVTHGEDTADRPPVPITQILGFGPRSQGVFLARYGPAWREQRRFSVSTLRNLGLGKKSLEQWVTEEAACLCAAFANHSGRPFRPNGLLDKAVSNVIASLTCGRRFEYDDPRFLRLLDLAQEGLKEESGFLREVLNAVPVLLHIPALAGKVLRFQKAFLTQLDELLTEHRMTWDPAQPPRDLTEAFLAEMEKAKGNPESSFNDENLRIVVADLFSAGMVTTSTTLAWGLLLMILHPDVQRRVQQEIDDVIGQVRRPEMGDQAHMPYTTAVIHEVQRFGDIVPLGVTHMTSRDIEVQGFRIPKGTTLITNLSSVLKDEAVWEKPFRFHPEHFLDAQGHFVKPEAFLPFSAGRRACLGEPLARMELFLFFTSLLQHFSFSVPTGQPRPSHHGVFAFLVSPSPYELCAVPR

Cytochrome P450 1A2 = target: T4, Cytochrome P450 1A2 (Homo sapiens, UniProt P05177);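 further: PubChem cytochrome P450 panel assay, CYP1A2 panel member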
T4 sequence (P05177 whole entry): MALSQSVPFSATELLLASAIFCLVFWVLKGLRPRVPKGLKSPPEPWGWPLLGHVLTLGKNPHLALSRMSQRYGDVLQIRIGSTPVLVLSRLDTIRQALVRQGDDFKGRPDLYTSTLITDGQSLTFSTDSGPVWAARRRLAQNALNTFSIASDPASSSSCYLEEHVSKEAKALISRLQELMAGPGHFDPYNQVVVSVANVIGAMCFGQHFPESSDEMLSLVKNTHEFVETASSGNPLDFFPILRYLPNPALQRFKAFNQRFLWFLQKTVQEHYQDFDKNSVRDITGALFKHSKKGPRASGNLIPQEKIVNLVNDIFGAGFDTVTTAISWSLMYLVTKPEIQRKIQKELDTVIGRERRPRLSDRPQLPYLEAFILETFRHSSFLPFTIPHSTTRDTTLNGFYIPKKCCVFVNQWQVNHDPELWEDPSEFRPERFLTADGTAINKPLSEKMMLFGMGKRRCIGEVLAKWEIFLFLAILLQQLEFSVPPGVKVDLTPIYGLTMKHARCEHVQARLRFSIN

Cytochrome P450 3A4 = Cytochrome P450 3A4 (Homo sapiens, UniProt P08684);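 further: CYP3A4 tested as one member of a cytochrome P450 panel screen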
Cytochrome P450 3A4, sequence (P08684 whole entry): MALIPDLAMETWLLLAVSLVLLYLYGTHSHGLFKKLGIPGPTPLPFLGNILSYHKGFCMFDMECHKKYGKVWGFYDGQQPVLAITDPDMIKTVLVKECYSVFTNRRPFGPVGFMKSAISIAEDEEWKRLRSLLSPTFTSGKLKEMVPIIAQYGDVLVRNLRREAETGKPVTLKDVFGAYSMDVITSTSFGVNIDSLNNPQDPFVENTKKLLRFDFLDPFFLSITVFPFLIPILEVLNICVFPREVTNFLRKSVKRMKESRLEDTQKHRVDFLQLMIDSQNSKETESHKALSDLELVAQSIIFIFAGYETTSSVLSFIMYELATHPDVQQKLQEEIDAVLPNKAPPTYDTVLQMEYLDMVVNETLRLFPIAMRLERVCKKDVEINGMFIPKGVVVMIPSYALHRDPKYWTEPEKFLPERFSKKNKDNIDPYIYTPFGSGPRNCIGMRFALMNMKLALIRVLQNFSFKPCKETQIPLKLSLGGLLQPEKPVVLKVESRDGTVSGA

Cytochrome P450 2C9 = Cytochrome P450 2C9 (Homo sapiens, UniProt P11712)
Cytochrome P450 2C9, sequence (P11712 whole entry): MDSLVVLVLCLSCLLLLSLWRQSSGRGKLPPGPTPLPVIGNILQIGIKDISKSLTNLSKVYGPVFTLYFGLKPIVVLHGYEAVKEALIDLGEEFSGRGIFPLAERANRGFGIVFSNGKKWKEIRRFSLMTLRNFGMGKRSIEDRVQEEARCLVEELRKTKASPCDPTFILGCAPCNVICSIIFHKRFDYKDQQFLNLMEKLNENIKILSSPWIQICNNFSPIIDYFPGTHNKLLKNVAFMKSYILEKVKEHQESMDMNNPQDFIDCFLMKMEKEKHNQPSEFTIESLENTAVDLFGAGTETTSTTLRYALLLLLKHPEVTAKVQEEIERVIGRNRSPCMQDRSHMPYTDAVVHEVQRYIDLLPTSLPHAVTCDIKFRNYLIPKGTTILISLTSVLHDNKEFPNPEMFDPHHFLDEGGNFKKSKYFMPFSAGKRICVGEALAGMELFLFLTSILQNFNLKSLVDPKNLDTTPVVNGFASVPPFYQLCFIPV

cells [6] = assay type: functional, cell-based
cells [7] = assay type: functional, cell-based; remark: listed apart in the source
[8] = target: Luciferin 4-monooxygenase (Photinus pyralis, UniProt P08659); assay: inhibition of purified Photinus pyralis luciferase – biochemical, luminescence, dose response (AID 1891)
Luciferin 4-monooxygenase, sequence (P08659 whole entry): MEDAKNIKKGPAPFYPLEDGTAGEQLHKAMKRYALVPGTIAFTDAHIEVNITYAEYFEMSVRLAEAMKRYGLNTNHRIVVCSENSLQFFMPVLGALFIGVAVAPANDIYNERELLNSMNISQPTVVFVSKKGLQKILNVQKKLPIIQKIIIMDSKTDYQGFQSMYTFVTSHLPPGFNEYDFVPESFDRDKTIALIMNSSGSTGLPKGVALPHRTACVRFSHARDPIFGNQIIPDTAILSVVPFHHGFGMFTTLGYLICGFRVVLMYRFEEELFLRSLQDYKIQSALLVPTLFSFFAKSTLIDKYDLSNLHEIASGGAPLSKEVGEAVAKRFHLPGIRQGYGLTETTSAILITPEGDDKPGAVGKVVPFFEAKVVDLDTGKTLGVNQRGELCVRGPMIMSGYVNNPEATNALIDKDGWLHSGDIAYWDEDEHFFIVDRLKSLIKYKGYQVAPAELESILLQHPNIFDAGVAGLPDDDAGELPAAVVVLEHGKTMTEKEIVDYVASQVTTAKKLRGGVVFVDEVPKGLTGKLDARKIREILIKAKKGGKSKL

[9] = Luminescence Cell-Based Dose Confirmation HTS to Identify Inhibitors of Platelet Dense Granule Release. [Related pubchem assays: 1663 (Primary HTS), 1678 (Summary of Project)]; assay type: functional
[10] = A549 cell cytotoxicity, dose response, cytotoxicity control, plate reader, cherry-pick, antagonist series (AID 743412); assay type: functional, cell-based
[11] = blockers of bursicon-stimulated LGR2 cAMP reporter – cell-based, HEK293, CRE-luciferase reporter, cherry pick, set 2, dose response (AID 743343); assay type: functional;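 further: transfected cells were stimulated with diluted bursicon conditioned medium after compound addition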
[12] = blockade of melanocortin 4 receptor signaling – cell-based, plate reader, cherry pick, counter-screen for LGR2 antagonist project, dose response (AID 743444); assay type: functional;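 further: transfected HEK 293 cells stimulated with alpha-MSH peptide; potency of inhibitors of the alpha-MSH evoked signal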
[13] = viability loss in HEK293 cells – cell-based, plate reader, cherry-picked samples, cytotoxicity control, dose response (AID 743446); assay type: functional
[14] = luciferase reporter signal suppression in cells – H4 neuroglioma cells, luminescence, dose response (AID 1990); assay type: functional, cell-based
[15] = Luminescence Cell-Based Dose Response HTS to Identify Inhibitors of 5'UTR Stem-Loop Driven Prion Protein mRNA Translation in H4 Neuroglioblastoma Cells. [Related pubchem assays: 1827 (Project Summary), 1813 (Primary HTS)]; assay type: functional
[16] = alpha-synuclein stem-loop luciferase translation blockers – H4 neuroglioma cells, luminescence, confirmation (AID 1988); assay type: functional, cell-based
[17] = Trypanosoma cruzi growth suppression in host cells – NIH3T3 host cells, beta-gal luminescence, confirmation (AID 2044); assay type: functional, cell-based;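 further: intracellular parasites grown in NIH/3T3 mouse fibroblasts as host cells; luminescent beta-galactosidase reporter signal from transgenic T. cruzi replicating inside host cells; inhibitors lower the luminescence signal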
[18] = NIH3T3 cell viability loss – ATP luminescence, mouse fibroblasts, counter-screen, dose response (AID 2010); assay type: functional, cell-based;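 further: cells exposed to compound for about 90 hours before reading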
[19] = THP-1 cell cytotoxicity, dose response, cytotoxicity control for non-replicating M. tuberculosis project (AID 489025); assay type: functional
cells [20] = assay type: functional
INS1 = assay: INS-1E survival protection against cytokine death – cell-based, luminescence, retest, dose response (AID 449756); assay type: functional; conditions: Rattus norvegicus;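 further: cell death triggered by IL-1 beta plus TNF-alpha plus IFN-gamma mixture; protective hits raise ATP signal compared with cytokine alone wells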
[21] = NIH-3T3 fibroblast cytotoxicity, dose response, cytotoxicity control, cell-based, fluorescence, Alamar Blue, secondary assay (AID 2327); assay type: functional;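 further: NIH-3T3 mouse fibroblasts cultured with fluconazole at 8 µg/mL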
[22] = fluconazole-exposed Candida albicans growth modulators – fluorescence, retest, confirmation (AID 2467); assay type: functional, cell-based
[23] = reduced cellular PGC1a acetyl-lysine signal – cell-based, cherry-picked samples, dose response (AID 720514); assay type: functional;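 further: potency may reflect raised or lowered acetylation signal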

CCN(CC)S(=O)(=O)c1cc(C(=O)OCC(=O)Nc2cccc(Br)c2)ccc1F
AC50 [1]: 6.81 µM (active)

CC1(OC(=O)C2CCCC2)C(=O)C=C2C=C(c3ccsc3)N(Cc3ccc4c(c3)OCO4)C=C2C1=O (stereo unspecified)
IC50 [2]: > 80 µM (inactive)

Cc1ccc(N=C(S)C2=C(O)c3sccc3N(C)S2(=O)=O)cc1
IC50 [3]: > 66 µM (inactive) | IC50 [4]: > 66 µM (inactive) | AC50 [1]: > 100 µM (inactive)

Cc1cccc(-n2nnc(C(=O)NC3CCCc4ccccc43)c2N)c1 (stereo unspecified)
IC50 [5]: 7.05 µM (not active) | AC50 (Cytochrome P450 2D6): 7.94 µM (inconclusive) | AC50 (Cytochrome P450 1A2): 15.8 µM (inconclusive) | AC50 (Cytochrome P450 3A4): 1.12 µM (inconclusive) | AC50 (Cytochrome P450 2C9): inconclusive

Cc1cccc(N2CCN(c3ccc(N4C(=O)CCCC4=O)cc3[N+](=O)[O-])CC2C)c1 (stereo unspecified)
EC50 (cells [6]): > 350 µM (not active) | EC50 (cells [7]): > 350 µM (not active)

CCOC(=O)c1ccc(-n2c(N)c(C(=O)NCC3CCCO3)sc2=S)cc1 (stereo unspecified)
IC50 [2]: > 80 µM (inactive)

COc1ccc(-c2cc(-c3ccccc3)no2)cc1
EC50 [8]: 0.895 µM (active) | EC50 [9]: 10.3 µM (active) | AC50 [10]: 45.1 µM (active) | AC50 [11]: 5.01 µM (active) | AC50 [12]: 3.84 µM (active) | AC50 [13]: > 52 µM (inactive)

CCNC(=O)c1ccc(-n2nc(C(F)(F)F)c3c2CCCC3)cc1
EC50 [14]: 18.1 µM (active) | EC50 [15]: 41.9 µM (active) | EC50 [16]: > 120 µM (not active) | AC50 (Cytochrome P450 2D6): 8.91 µM (inconclusive) | AC50 (Cytochrome P450 1A2): 25.1 µM (inconclusive) | AC50 (Cytochrome P450 2C9): inconclusive

O=C(Nc1ccc(S(=O)(=O)N2CCOCC2)cc1)c1ccc([N+](=O)[O-])s1
EC50 [17]: 0.394 µM (active) | EC50 [18]: 42.8 µM (active) | CC50 [19]: 23.2 µM (active) | IC50 (cells [20]): 0.7 µM (active) | AC50 (INS1): 7.03 µM (active)

O=C(O)CCC(=O)Nc1ccc(C(=O)OCC(=O)c2ccc(Cl)cc2Cl)cc1
AC50 [1]: > 100 µM (inactive)

COc1cc(Br)cc2cc(C(=O)NCC3CCCO3)c(=O)oc12 (stereo unspecified)
AC50 (Cytochrome P450 1A2): 3.55 µM (inconclusive) | AC50 (Cytochrome P450 2C9): inconclusive

COc1ccccc1NC(c1cccnc1)c1ccc2cccnc2c1O (stereo unspecified)
EC50 [21]: > 160 µM (inconclusive) | EC50 (cells [6]): 116 µM (active) | EC50 [22]: > 38 µM (not active) | EC50 (cells [7]): > 350 µM (not active)

O=C(CCC(=O)OCC(=O)c1ccc([N+](=O)[O-])cc1)Nc1ccccc1Cl
IC50 [2]: > 80 µM (inactive)

COc1ccc(C#Cc2ccc([C@H]3[C@@H](CO)N4CCCCN(C(=O)Nc5ccc(F)cc5)C[C@H]34)cc2)cc1
AC50 [23]: 13.9 µM (active)

Cc1cccc(-c2ccc([C@H]3[C@@H](CO)N4CCCCN(C(=O)c5cccnc5)C[C@@H]34)cc2)c1
AC50 [10]: 38.4 µM (active) | AC50 [11]: 20.8 µM (active) | AC50 [12]: 23.5 µM (active) | AC50 [13]: > 52 µM (inactive)

C=CCc1ccccc1OCC(=O)N/N=C/c1ccccc1OCC
IC50 [2]: > 80 µM (inactive)

O=C(N/N=C(\Cc1ncc[nH]1)c1ccccc1)c1ccccc1
EC50 [14]: 12.7 µM (active) | EC50 (cells [6]): > 350 µM (not active) | EC50 [15]: > 120 µM (not active) | EC50 [16]: > 120 µM (not active) | EC50 (cells [7]): > 350 µM (not active)

C/C(=N\NC(=O)Cc1ccc(Br)cc1)c1cccnc1
EC50 (cells [6]): > 350 µM (not active) | EC50 (cells [7]): 36.3 µM (active)
